Activity calls are given as the source filed them. No cut-off for these calls is given here.
How the values were obtained:
Assay type in all cases: functional, tissue-based
Myometrium [1] = assay: Induction of contraction in beta-estradiol stimulated rat myometrium
Myometrium [2] = assay: Induction of contraction per minute in beta-estradiol stimulated rat myometrium at 0.6 uM
Myometrium [3] = assay: Induction of contraction per minute in beta-estradiol stimulated rat myometrium at 1 nM

EC50 (Myometrium [1]) [nM] | Structure (SMILES) | Activity (Myometrium [2]) | Activity (Myometrium [3])
400 | CC[C@H](C)[C@@H]1NC(=O)[C@H](Cc2ccc(O)cc2)NC(=O)[C@@H](N)CSSC[C@@H](C(=O)N2CCC[C@H]2C(=O)N[C@@H](CC(C)C)C(=O)NCC(=O)NC[C@H]2O[C@@H]3O[C@H]4[C@H](O)[C@@H](O)[C@@H](O[C@H]5[C@H](O)[C@@H](O)[C@@H](O[C@H]6[C@H](O)[C@@H](O)[C@@H](O[C@H]7[C@H](O)[C@@H](O)[C@@H](O[C@H]8[C@H](O)[C@@H](O)[C@@H](O[C@H]9[C@H](O)[C@@H](O)[C@@H](O[C@H]2[C@H](O)[C@H]3O)O[C@@H]9CO)O[C@@H]8CO)O[C@@H]7CO)O[C@@H]6CO)O[C@@H]5CO)O[C@@H]4CO)NC(=O)[C@H](CC(N)=O)NC(=O)[C@H](CCC(N)=O)NC1=O | – | –
– | CC[C@H](C)[C@@H]1NC(=O)[C@H](Cc2ccc(O)cc2)NC(=O)[C@H](N)CSSC[C@@H](C(=O)N2CCC[C@H]2C(=O)N[C@@H](CC(C)C)C(=O)NCC(=O)NC[C@H]2O[C@@H]3O[C@H]4[C@H](O)[C@@H](O)[C@@H](O[C@H]5[C@H](O)[C@@H](O)[C@@H](O[C@H]6[C@H](O)[C@@H](O)[C@@H](O[C@H]7[C@H](O)[C@@H](O)[C@@H](O[C@H]8[C@H](O)[C@@H](O)[C@@H](O[C@H]9[C@H](O)[C@@H](O)[C@@H](O[C@H]2[C@H](O)[C@H]3O)O[C@@H]9CO)O[C@@H]8CO)O[C@@H]7CO)O[C@@H]6CO)O[C@@H]5CO)O[C@@H]4CO)NC(=O)[C@H](CC(N)=O)NC(=O)[C@H](CCC(N)=O)NC1=O | Active | –
1.7 | CC[C@H](C)[C@@H]1NC(=O)[C@H](Cc2ccc(O)cc2)NC(=O)[C@@H](N)CSSC[C@@H](C(=O)N2CCC[C@H]2C(=O)N[C@@H](CC(C)C)C(=O)NCC(N)=O)NC(=O)[C@H](CC(N)=O)NC(=O)[C@H](CCC(N)=O)NC1=O [OXYTOCIN] | – | Active

From ChEMBL document CHEMBL1141533, “Synthesis and pharmacological evaluation of a new targeted drug carrier system: beta-cyclodextrin coupled to oxytocin” (Bioorg Med Chem Lett, 2008)
